Columns and labels:
HCT116 cells = test: Activity of inhibiting cell growth, HCT116 (sulforhodamine B); type: cell-based; details: Homo sapiens, HCT-116, 72 h, cell growth inhibition, 3 days incubation
Method: (§1) Activity of Inhibiting Cell Growth
(§2) • (1) Method of cell culture
(§3) Clinical separative cancer cells HCT116 were cultured in Dulbecco′ modified Eagle's medium with 10% Fetal Bovine Serum, and clinical separative cancer cells MKN-1 were cultured in RPMI1640 medium added 10% Fetal Bovine Serum. Both cells were cultured at 37° C., under 5% CO2 and saturated steam. • (2) Determination of activity of inhibiting cell growth
(§4) The activity of inhibiting cell growth was measured using the modified method of Skehan's method (J. Natl. Cancer Inst. Vol.82, p.1107-1112, 1990), and so on. One hundred μL each of the culture medium containing 1×10^3 HCT116 or MKN-1 as living cells was pipetted to 96-well dish and cultured over night. […] Then, the diluted compounds or DMSO as the control, was added to the medium. One hundred μL of the medium added with the diluted drug solutions or DMSO was added to the cells cultured in 96-well dish, and was incubated for further 3 days.
(§5) To each well, 50 μL of trichloroacetic acid (50%) was added to fix the cells. The cells were stained using 0.4% sulforhodamine B. Sulforhodamine B was extracted with 10 mM tris buffer, and the optical density at 560 nm was compared with that of control at 450 nm.

MKN-1 cells = test: Activity of inhibiting cell growth, MKN-1 (sulforhodamine B); type: cell-based; details: Homo sapiens, MKN-1, 72 h, cell growth inhibition, 3 days incubation
Method: as §1, §2, §3, §4, §5

cyclin D3-Cdk6 = target: T1, cyclin D3-Cdk6 (Homo sapiens, UniProt Q00534); test: Enzyme assay of cyclin D3-Cdk6 (33P-ATP phosphorylation of peptide substrate); type: biochemical; details: 100 μM peptide substrate, 50 μM ATP, 30° C.
T1 construct: made in house; host or cells: Sf9 insect cells, baculovirus co-infection
Text: • (1) Preparation of cyclin D1-Cdk6 and cyclin D3-Cdk6
As the same method of preparing cyclin D1-Cdk4, cDNA of Cdk6 and its activator cyclin D1 or D3 was recombined with baculovirus-expression vector to make recombinant baculovirus. This was co-infected to insect cell Sf9 to express an active complex of cyclin D1-Cdk6 or cyclin D3-Cdk6. The cells were recovered and solubilized and purified by HPLC columnchromatography. • (2) Enzyme assay of cyclin D1-Cdk6 and cyclin D3-Cdk6.
A peptide substrate used for cyclin D1-Cdk6 was synthetic peptide ([…] (SEQ ID No. 2) and that used for cyclin D3-Cdk6 was synthetic peptide ([…] (SEQ ID No. 3) (The EMBO J. vol. 15, p. 7060-7069, 1996).
The reaction was carried out using the modified procedure of Kitagawa's method (Oncogene, vol.7, p.1067-1074, 1992). The volume of the reaction solution was 21.1 μL. Purified cyclin D1-Cdk6 in R buffer and 400 μM peptide substrate or cyclin D3-Cdk6 and 100 μM pipetide substrate, unlabeled ATP (50 μM) and 1 μCi ATP labeled with γ-33P(2000-4000 Ci/mmole) were added to the reaction mixture. The mixture was incubated at 30° C. for 20 or 45 min. Then, 10 μL of phosphate buffer (350 mM) was added to stop the reaction. The peptide substrate was absorbed to P81 paper and its radioactivity was measured by a liquid scintillation counter. […]

cyclin D2-Cdk4 = cyclin D2-Cdk4 (Homo sapiens, UniProt P11802); test: Enzyme assay of cyclin D2-Cdk4 (33P-ATP phosphorylation of RB peptide substrate); type: biochemical; details: Table 1, second value column (head repeats cyclin D1-Cdk4); 50 μM ATP, 100 μM peptide substrate, 30° C., 45 min
Chain of cyclin D2-Cdk4 (P11802 whole entry): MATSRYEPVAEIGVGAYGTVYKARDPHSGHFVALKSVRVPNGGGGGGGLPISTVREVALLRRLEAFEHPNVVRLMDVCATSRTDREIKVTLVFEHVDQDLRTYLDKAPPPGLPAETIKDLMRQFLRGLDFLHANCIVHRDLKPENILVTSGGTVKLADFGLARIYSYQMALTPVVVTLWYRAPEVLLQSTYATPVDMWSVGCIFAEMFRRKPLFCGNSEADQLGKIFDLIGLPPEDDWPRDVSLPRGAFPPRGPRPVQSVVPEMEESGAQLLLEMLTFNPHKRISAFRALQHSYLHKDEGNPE
Text: • (1) Preparation of cyclin D1-Cdk4 and cyclin D2-Cdk4
cDNA of Cdk4 and its activator cyclin D1 or D2 was subcloned into a baculovirus-expression vector to make recombinant baculovirus and then, they are co-infected to insect cell Sf9 to express an active complex of cyclin D1-Cdk4 or cyclin D2-Cdk4. The cells were recovered and solubilized and purified by HPLC columnchromatography (The the enzyme are EMBO J. vol.15, p.7060-7069, 1996). • (2) Enzyme assay of cyclin D1-Cdk4 and cyclin D2-Cdk4
The reaction was carried out using the modified procedure of Kitagawa's method (Oncogene, vol.7, p.1067-1074, 1992). The volume of the reaction solution was 21.1 μL. The reaction buffer (R buffer) consisted of 20 mM Tri-HCl buffer (pH7.4)/10 mM MgCl2/4.5 mM 2-mercaptoethanol/1 mM ethyleneglycolbis(β-aminoethylether)-N,N,N′,N′-tetracetic acid (EGTA). Purified cyclin D1-Cdk4 or D2-Cdk4, 100 μM peptide substrate, 50 μM unlabeled ATP and ATP labeled with 1 μCi γ-33P(2000-4000 Ci/mmole) were added to the reaction mixture. The mixture was incubated at 30° C. for 45 min. 10 μL of phosphate buffer (350 mM) was added to stop the reaction. The peptide substrate was absorbed to P81 paper and its radioactivity was measured by a liquid scintillation counter. ATP labeled with γ-33P was purchased from Daiich Chemicals, Ltd. […]

T1 sequence (Q00534 whole entry): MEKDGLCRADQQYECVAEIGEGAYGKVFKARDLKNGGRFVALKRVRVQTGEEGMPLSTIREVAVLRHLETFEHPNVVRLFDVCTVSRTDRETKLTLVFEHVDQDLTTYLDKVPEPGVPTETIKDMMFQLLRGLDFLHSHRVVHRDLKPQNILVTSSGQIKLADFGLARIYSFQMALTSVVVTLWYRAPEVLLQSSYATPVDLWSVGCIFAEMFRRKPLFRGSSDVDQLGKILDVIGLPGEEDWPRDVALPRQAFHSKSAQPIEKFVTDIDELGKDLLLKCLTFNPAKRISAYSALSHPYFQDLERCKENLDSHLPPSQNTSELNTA
T1 sequence (P30281 whole entry partner): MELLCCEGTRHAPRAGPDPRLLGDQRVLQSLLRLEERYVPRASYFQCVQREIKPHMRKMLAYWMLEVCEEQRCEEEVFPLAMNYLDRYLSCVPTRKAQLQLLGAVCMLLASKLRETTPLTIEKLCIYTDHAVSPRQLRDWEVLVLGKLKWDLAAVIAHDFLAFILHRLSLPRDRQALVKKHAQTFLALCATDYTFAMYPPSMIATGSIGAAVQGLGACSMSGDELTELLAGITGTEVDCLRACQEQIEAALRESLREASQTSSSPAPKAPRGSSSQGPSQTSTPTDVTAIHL

Row | IC50 (HCT116 cells) | IC50 (MKN-1 cells) | IC50 (cyclin D3-Cdk6) | IC50 (cyclin D2-Cdk4) | Structure (SMILES)
1 | 0.15 µM | 0.87 µM | – | – | CN1CC[C@H](c2c(O)cc(O)c3c(=O)cc(-c4ccccc4Cl)oc23)[C@H](O)C1 (racemic) [(±)flavopiridol, flavopiridol]
2 | – | – | 0.013 µM | 0.016 µM | O=C(Nc1cc(C2CCN(Cc3ccccc3)C2)ccn1)Nc1cccc2c1C1CCCN1C2=O (stereo not shown) [Working Example No. 165, N′-(pyrrolidino[2,1-b]isoindolin-4-on-8-yl)-N-(4-(N-benzylpyrrolidin-3-yl)pyridin-2-yl)urea]
